Publication PMC5866173 (Journal of natural products, 2017)
Entries after “also recorded” stand apart in the source; their conditions may differ.

Test system: chloroquine/mefloquine-resistant Dd2 strain of Plasmodium falciparum
Type: cell-based
Settings: for antiplasmodial activity (in words): Dd2 strain of P. falciparum

Row | Compound | antiplasmodial activity (in words) | IC50 (read-out: IC50 against P. falciparum Dd2, chloroquine-resistant Dd2 strain, 72-hour treatment)
1 | C/C(=C\CC/C(C)=C/C(=O)C[C@]1(C)CCc2cc(O)cc(C)c2O1)CO [Compound 1, (3E,7E)-9-hydroxy-1-[(S)-6-hydroxy-2,8-dimethylchroman-2-yl]-4,8-dimethylnona-3,7-dien-2-one] | inactive | –
2 | C/C(=C/CC/C(C)=C/C(=O)C[C@]1(C)CCc2cc(O)cc(C)c2O1)CO [Compound 2, (3E,7Z)-9-hydroxy-1-[(S)-6-hydroxy-2,8-dimethylchroman-2-yl]-4,8-dimethylnona-3,7-dien-2-one] | weak antiplasmodial activity; also recorded: most potent biological activity among these compounds | –
3 | CC1=CCCC(C)(CC(=O)C[C@]2(C)CCc3cc(O)cc(C)c3O2)OC1 (single isomer, unassigned) [Compound 6, 1-[(S or R)-2,6-dimethyl-2,3,4,7-tetrahydrooxepin-2-yl]-3-[(S)-6-hydroxy-2,8-dimethylchroman-2-yl]propan-2-one] | weak antiplasmodial activity | –
4 | CC1=CCCC(C)(CC(=O)C[C@]2(C)CCc3cc(O)cc(C)c3O2)OC1 (single isomer, unassigned) [Compound 7, 1-[(R or S)-2,6-dimethyl-2,3,4,7-tetrahydrooxepin-2-yl]-3-[(S)-6-hydroxy-2,8-dimethylchroman-2-yl]propan-2-one] | weak antiplasmodial activity | –
5 | (R)-2-[(3E,7E)-9-hydroxy-4,8-dimethylnona-3,7-dien-1-yl]-2,8-dimethyl-2H-chromen-6-ol [Compound 9] | – | > 117 µM
6 | COc1cc(C)c2c(c1)CC[C@@](C)(CC(=O)/C=C(\C)CC/C=C(\C)CO)O2 [Compound 5, (3E,7E)-9-hydroxy-1-[(S)-6-methoxy-2,8-dimethylchroman-2-yl]-4,8-dimethylnona-3,7-dien-2-one] | weak antiplasmodial activity; also recorded: moderately active | –
